Experimental findings from paper PMC12022973, “Proteomimetic Strategy for the Modulation of Intrinsically Disordered Protein MYC” (Journal of the American Chemical Society, 2025) are described below.

Starred links: 1 amine or outer side, 2 acyl side, 3 side chain; linkers in the order of their positions; H or OH if unused. Positions of bridges follow the written chain, without caps; N, C: chain ends. Residues, ends and D or L forms follow the SMILES beside them. Chains are numbered I, II in the order given. X1 = c1cc(C[*:1])ccc1COCc1ccc(C[*:2])cc1

The data set in a line: Serum stability assay in 25% FBS. The class given is in vitro ADME. The note with it: 25% fetal bovine serum in RPMI-1640, 37 °C, RP-HPLC C18 at 280 nm, L-tryptophan internal standard, triplicate, read-out: initial peptide remaining intact in serum. As to the method: Encouraged by the in vitro results, we evaluated the potential of CHD^Max-1 to form a complex with MYC in cellulo. We first assessed the ability of CHDs to resist proteolytic degradation in fetal bovine serum (FBS). We monitored the rate of peptide degradation under the treatment of 25% FBS over 24 h by RP-HPLC, with tryptophan as an internal standard. […] After validating the serum stability of CHD^Max-1, we tested its potential to enter live cells. We chose T24 cells, a bladder cancer cell line, for these studies because these cells express a high level of MYC.[39] We assessed the ability of fluorescein-labeled FITC–CHD^Max-1 to enter T24 cells using confocal microscopy and observed overlapped fluorescein and Hoechst nuclear stain signals, showing internalization of FITC–CHD^Max-1 (Figure 4C).
CD experiments were conducted on an Jasco J-1500 Circular Dichroism spectrometer equipped with a temperature controller using 1 mm length cells and a scan speed of 4.0 nm/min at 298 K. The spectra were averaged over 5 scans with baseline subtraction. […] The concentrations of each peptide were determined by the UV absorption at 280 nm.
Proteolytic stability of CHDMax-1 was assessed in 25% serum by using fetal bovine serum (FBS, Gibco) in Roswell Park Memorial Institute (RPMI)-1640 medium at 37 °C. […] Time points of 0 h, 6 h, and 24 h were analyzed in triplicate. […]

By share remaining is commonly meant what is left of the initial amount, in per cent. For the compound `CC[C@H](C)[C@H](NC(=O)[C@H](CCCCN)NC(=O)[C@H](CCC(=O)O)NC(=O)[C@H](CCCNC(=N)N)NC(=O)[C@H](CC(C)C)NC(C)=O)C(=O)N[C@@H](C)C(=O)N[C@H](C(=O)N[C@@H](CC(C)C)C(=O)N[C@@H](CCC(N)=O)C(=O)N[C@@H](Cc1c[nH]c2ccccc12)C(=O)N[C@@H](CSCc1ccc(COCc2ccc(CSC[C@H](NC(=O)[C@H](CC(C)C)NC(=O)[C@H](CCC(=O)O)NC(=O)[C@H](CCC(=O)O)NC(=O)[C@@H](NC(=O)[C@H](CCC(=O)O)NC(=O)[C@H](Cc3c[nH]c4ccccc34)NC(=O)[C@H](CCC(N)=O)NC(=O)[C@H](Cc3c[nH]cn3)NC(=O)[C@@H](NC(=O)[C@H](CCC(=O)O)NC(=O)[C@H](CC(N)=O)NC(=O)[C@H](CCCCN)NC(=O)[C@H](CCCNC(=N)N)NC(=O)[C@H](CCCNC(=N)N)NC(=O)[C@H](CC(C)C)NC(C)=O)[C@@H](C)O)[C@@H](C)CC)C(N)=O)cc2)cc1)C(=O)N[C@H](C(=O)N[C@@H](CCC(=O)O)C(=O)N[C@@H](CCC(=O)O)C(=O)N[C@@H](CC(C)C)C(=O)N[C@@H](CCCNC(=N)N)C(=O)N[C@@H](CCCCN)C(N)=O)[C@@H](C)CC)[C@@H](C)O` [CHD^Max-1] (I: Ac-LREKIATLQWCIEELRK-NH2 / II: Ac-LRRKNETHQWEIEELC-NH2; linker I:11-II:16 via X1), the share remaining at 24 h was roughly 80%.
